Experimental data reported in publication PMC8790063, “Discovery of Benzopyrrolizidines as Promising Antigiardiasic Agents” (Frontiers in Cellular and Infection Microbiology, 2022).
Values joined by “and” are separate entries in the source; they are usually repeats but may differ in a detail not shown here. Equal values may be shown once.

How the values were obtained:
Assay type in all cases: cell-based
[1] = tested on: Giardia lamblia trophozoites; assay: Morphological studies of trophozoites (bright-field microscopy, transmission electron microscopy); conditions: at the IC50 concentration, 24 hours; for Morphological effects on trophozoites (bright-field microscopy): Giemsa stain
Description: For bright-field microscopy (BFM), 2x10^6 trophozoites were placed in 1.5 mL vials containing antibiotic-free TYI-S-33 culture medium, with or without metronidazole, tinidazole, albendazole, or the library compounds, at the IC50 concentration values. The trophozoites were incubated for 24 hours/37°C and harvested by chilling in ice bath for 15 minutes and centrifuged at 2,000 x g/5 minutes. The bottom cell was washed three times with PBS, and then, placed in glass slides, fixed with MeOH and stained with Giemsa. Finally, the samples were analyzed by BFM. To identify ultrastructural damage, 1x10^6 trophozoites treated as described before were fixed with 2.5% glutaraldehyde and post-fixed with 1% osmium tetroxide in 0.1 M cacodylate buffer, pH 7.2. Afterward, the samples were dehydrated with sequential increasing of ethanol concentrations and then, embedded in epoxy resin. Ultrathin sections of samples were analyzed in a JEOL-JEM-1200 transmission electron microscope coupled to a CCD GATAN camera in the Unidad de Imagenología del Instituto de Fisiología Celular, UNAM.

[2] = tested on: HaCaT cells; assay: Cytotoxicity assay in human keratinocytes (crystal violet); conditions: for IC50: HaCaT human keratinocytes, standard deviation in parenthesis; for Selectivity Index: IC50 HaCaT/IC50 Trophozoites
Description: The in vitro cytotoxicity evaluation of compounds was assayed in immortalized human keratinocytes cell line (HaCat). Briefly, cell cultures were grown in DMEM-F12 media supplemented with 10% decomplemented fetal bovine serum, at 37°C and 5% CO2. Before to test, cells were harvested by centrifugation at 25°C and resuspended in fresh media at 5x10^4 cells/mL. Then, the cells were placed in sterile 24 well clear flat bottom polystyrene TC-treated plates (Corning Costar, #353047) at 3x10^4 cells/well in a volume of 600 µL during 24 hours/37°C at 5% CO2, […] of media was replaced by the same amount of fresh media containing the compounds at concentrations of 100, 90, 80, 70, 60, and 50 µM; DMSO was used as a negative control. The cells were incubated for 48 hours/37°C and 5% CO2. In the end, the cells were washed two times with PBS, fixed and stained by incubating 15 minutes in a solution containing 50% EtOH, 1.75% formaldehyde, 0.75% crystal violet, and 0.25% NaCl. Then, the plates were washed several times with water until removing the colorant excess. After that, the plates were dried for one day at 25°C. Finally, 600 µL of PBS supplemented with 1% SDS was added to wells. The crystal violet incorporated to cells was spectrophotometrically quantified at 570 nm; the IC50 values were calculated from the percentage of death obtained from the different concentrations of assayed compounds. The assay was performed by two independent experiments, each compound was tested by triplicate.

[3] = tested on: Giardia lamblia trophozoites; assay: In vitro cytotoxicity microassay with XTT viability readout on trophozoites; conditions: for % cell death at 12.5 µM (Hits confirmation) / % cell death at 25 µM (Hits confirmation) / % cell death at 50 µM (Hits confirmation) / % cell death at 100 µM (First screening): Table S9; for % cell death at 100 µM (First screening) / % cell death / % cell death 100 µM: 100 µM; for % cell death: first set of 54 compounds (Table S8); for IC50: G. lamblia trophozoites, standard deviation in parenthesis; for % cell death 100 µM: second set of 20 compounds (Table S10)
Description: The cytotoxicity test was performed using sterile 96 well clear flat bottom polystyrene TC-treated microplates (Corning Costar #3596). Every well contained in a triplicate 287.5 µL medium supplemented with a first set of 54 compounds of the collection, control drugs (metronidazole and tinidazole), and negative controls (0.05% DMSO). Afterwards, 12.5 µL of a cell suspension containing 1.6 x 10^7 trophozoites/mL was added to every well to obtain a final number of 2x10^5 cells/well and incubated at 37°C for 24 hours. […] A triplicate of blank was done by filling three wells with only 300 µL culture medium (no cells but DMSO). After that, the plates were chilled for 30 minutes to separate the adhered trophozoites in wells. Later, we transferred 50 µL of this suspension to a second plate containing 250 µL of TYI-S-33 media free of compounds, DMSO or antibiotic per well, and re-cultivated at 37°C for 24 hours. The test was performed by two independent experiments for all compounds.
>The trophozoites viability was evaluated using the 2,3-Bis(2-methoxy-4-nitro-5-sulfophenyl)-sH-tetrazolium-5-carboxianilide inner salt (XTT) assay. Antigiardiasic activity of each compound was expressed as the death percentage, calculated by using the next equation ([Inc, 2020]):
% death=[(Abs. of well with 100% viability−Abs. of well with compound)/(Abs. of well with 100% viability−Abs. of blank well)]X 100
The assay was performed by two independent experiments, where each compound was tested by triplicate.

Row | Compound | Ultrastructural effects on trophozoites (transmission electron microscopy) [1] | Morphological effects on trophozoites (bright-field microscopy) [1] | IC50 ([2]; Homo sapiens, HaCaT, 48 h) [µM] | Selectivity Index [2] | % cell death at 12.5 µM (Hits confirmation) [3] [%] | % cell death at 25 µM (Hits confirmation) ([3]; 25 µM) | % cell death at 50 µM (Hits confirmation) ([3]; 50 µM) [%] | % cell death at 100 µM (First screening) [3] [%] | % cell death [3] [%] | IC50 ([3]; Giardia duodenalis) [µM] | % cell death 100 µM [3] [%] | IC50 [3] [µM] | % cell death 25 µM ([3]; 25 µM, second set (Table S10)) [%] | % cell death 50 µM ([3]; 50 µM, second set (Table S10)) [%] | IC50 ([2]; 48 hours) [µM]
1 | CCCSc1ccc2nc(NC(=O)OC)[nH]c2c1 [Albendazole] | loss of adhesive disc | an intense deformation of its general structure was observed | – | – | – | – | – | – | – | – | – | – | – | – | –
2 | COc1ccc(/C=C2/CC3(C(=O)NC(C)(C)C)c4cc(F)ccc4CN3C2=O)cc1OC (stereo not drawn) [EHV-110-160] | – | affected the nuclear structure and promoted the loss of one nucleus | 141 | 7 | 2.874 | 67% and 66.901% | 98.178 | 100.0 | 100.0 | 20 | – | – | – | – | –
3 | Cc1ncc([N+](=O)[O-])n1CCO [Metronidazole, reference compound] | without apparent morphologic changes | provoked cell swelling and the voiding of cytoplasmic contents making the cells translucent | 71.9 | 27.6 | 86.562 | – | – | 100.0 | 100.0 | 2.6 | 100.1 | – | – | – | –
4 | COc1ccc(/C=C2/CC3(C(=O)N[C@@H](C)c4ccccc4)c4ccccc4CN3C2=O)cc1OC (stereo partly drawn) [EHV-110-174, 2-((Z)-3,4-dimethoxybenzylidene)-3-oxo-N-((S)-1-phenylethyl)-2,3-dihydro-1H-pyrrolo[2,1-a]isoindole-9b(5H)-carboxamide] | damaged the cellular nuclei inducing chromatin condensation and conferring to it a speckled pattern | the cells are translucent and swelling, with shortening of flagella but without general morphological deformation | 130 | 12 | – | 98.298% | 98.312 | 100.0 | 100.0 | 11 | – | 10.9 | – | – | –
5 | CCS(=O)(=O)CCn1c([N+](=O)[O-])cnc1C [Tinidazole, reference compound] | – | provoked cell swelling and the voiding of cytoplasmic contents making the cells translucent | 60.9 | 46 | 98.499 | – | – | 100.0 | 100.0 | 1.3 | 100.7 | – | – | – | –
6 | COc1ccc(/C=C2/CC3(C(=O)NC(C)(C)C)c4ccccc4CN3C2=O)cc1OC (stereo not drawn) [EHV-110-106] | – | – | – | – | – | – | – | – | – | – | 89.2 | – | 8.2 | 13.4 | –
7 | COc1ccc(/C=C2/CC3(C(=O)NC4CCCCC4)c4ccccc4CN3C2=O)cc1OC (stereo not drawn) [EHV-110-154] | – | affected the nuclear structure and promoted the loss of one nucleus | 50 | 1.68 | 4.160 | 10.752% | 94.654 | 100.0 | 100.0 | 30 | – | – | – | – | 50.6
